Values of other authors as cited in US12465059B2, “Concentrated formic acid composition and its uses thereof” (priority 2018, dated 2025).

Legend:
[1] = versus Acetic Acid, the second best strongest straight chain Organic Acid
Rat = settings: oral

Compound | times stronger than Acetic Acid (acid strength) [1] [times] | LD 50 (Rat) [mg/kg]
O=CO [Methanoic acid] | 10 | –
[Cl-].[Na+] [Sodium Chloride] | – | 3000
